The GI50 is the concentration at which growth is held to half of that of the control. As a reminder, the TGI is the concentration giving total growth inhibition. Lower therefore signals greater sensitivity of the cells.

We go through 10 compounds from PubChem BioAssay (NCI).

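Briefly, cells in 96-well plates were exposed to five compound concentrations for 48 h, and endpoints were estimated by linear interpolation. At the GI50, growth is halved. Definition used: TGI = concentration required for complete inhibition of growth.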

The first assay has as its system CCRF-CEM leukemia. As to the kind of experiment: DTP human tumour cell line panel, 48 h.
Regarding `COc1ccc2c(c1)C(=O)CCc1cc(OC)c(OC)c(OC)c1-2`, the GI50 is less than 0.01 µM and the TGI is more than 100 µM.

As for `O=C(Nc1ccc(C(F)(F)F)cc1[N+](=O)[O-])C(=O)C1NC(=S)NC1=O` (stereo not drawn), the TGI is more than 100 µM.

On to `COc1cc(NCC(C#N)C#N)ccc1N=Nc1ccc(Cl)cc1`, for which the TGI is 61.9 µM.

Compound `O=C1N/C(=C\[N+](=O)[O-])c2ccccc21` displayed a TGI of more than 100 µM.

As for `Cn1c(Cl)c(/C=C2/C(=O)Nc3ccccc32)c2ccccc21`, the GI50 was 0.592 µM and the TGI was more than 22.1 µM.

The compound `COc1ccc(C(C#N)NC23CC4CC(CC(C4)C2)C3)cc1` (stereo not drawn) yielded a TGI of more than 100 µM.

In turn, `COc1ccc(NC(=O)CC/C(CC(=O)c2ccco2)=N/NC(=O)C(N)=O)cc1` showed a TGI of more than 100 µM.

Take `CCOC(=O)[CH-]C(=O)C12CC3CC(CC(C3)C1)C2.CCOC(=O)[CH-]C(=O)C12CC3CC(CC(C3)C1)C2.CC[O-].CC[O-].[Ti+4]`: the GI50 is more than 100 µM and the TGI was more than 100 µM.

In the case of `CCCC1(CC(=O)O)OCCc2c1[nH]c1ccccc21` (stereo not drawn), the TGI is more than 100 µM.

For another assay, the system named is MDA-MB-435. As to the kind of experiment: DTP human tumour cell line panel, 48 h.
Compound `COc1ccc2c(c1)C(=O)CCc1cc(OC)c(OC)c(OC)c1-2` had a TGI of 0.0717 µM.

For `Cn1c(Cl)c(/C=C2/C(=O)Nc3ccccc32)c2ccccc21`, the 50% growth inhibitory concentration (GI50) is less than 0.0438 µM and the TGI stood at 0.152 µM.

Take `COc1ccc(C(C#N)NC23CC4CC(CC(C4)C2)C3)cc1` (stereo not drawn): the TGI is more than 100 µM.

Turning to `N/N=C\c1c2ccccc2c(=O)n2c1oc1ccccc12`, the GI50 is 11.3 µM and the TGI amounted to 23.8 µM.

Another assay concerns SW-620 colon. Put plainly: DTP human tumour cell line panel, 48 h.
On to `COc1ccc2c(c1)C(=O)CCc1cc(OC)c(OC)c(OC)c1-2`, for which the GI50 was less than 0.01 µM and the TGI was more than 100 µM.

Consider `O=C(Nc1ccc(C(F)(F)F)cc1[N+](=O)[O-])C(=O)C1NC(=S)NC1=O` (stereo not drawn), for which the TGI is more than 100 µM.

For the compound `COc1cc(NCC(C#N)C#N)ccc1N=Nc1ccc(Cl)cc1`, the TGI is 41.9 µM.

`O=C1N/C(=C\[N+](=O)[O-])c2ccccc21` came in with a concentration for total growth inhibition (TGI) of more than 100 µM.

Take `Cn1c(Cl)c(/C=C2/C(=O)Nc3ccccc32)c2ccccc21`: the GI50 was 0.299 µM and the TGI is 14.7 µM.

For `COc1ccc(C(C#N)NC23CC4CC(CC(C4)C2)C3)cc1` (stereo not drawn), the TGI is more than 100 µM.

In turn, `COc1ccc(NC(=O)CC/C(CC(=O)c2ccco2)=N/NC(=O)C(N)=O)cc1` yielded a TGI of more than 100 µM.

In the case of `N/N=C\c1c2ccccc2c(=O)n2c1oc1ccccc12`, the GI50 is 15.1 µM and the TGI is 32.5 µM.

Consider `CCOC(=O)[CH-]C(=O)C12CC3CC(CC(C3)C1)C2.CCOC(=O)[CH-]C(=O)C12CC3CC(CC(C3)C1)C2.CC[O-].CC[O-].[Ti+4]`, for which the GI50 is more than 100 µM and the TGI was more than 100 µM.

Turning to `CCCC1(CC(=O)O)OCCc2c1[nH]c1ccccc21` (stereo not drawn), the concentration for total growth inhibition (TGI) was more than 100 µM.

For another assay, the system named is A498 renal. As to the kind of experiment: DTP human tumour cell line panel, 48 h.
The compound `O=C(Nc1ccc(C(F)(F)F)cc1[N+](=O)[O-])C(=O)C1NC(=S)NC1=O` (stereo not drawn) had a TGI of more than 100 µM.

`COc1cc(NCC(C#N)C#N)ccc1N=Nc1ccc(Cl)cc1` gave a TGI of more than 100 µM.

As to `O=C1N/C(=C\[N+](=O)[O-])c2ccccc21`, the TGI was more than 100 µM.

With `COc1ccc(NC(=O)CC/C(CC(=O)c2ccco2)=N/NC(=O)C(N)=O)cc1`, the TGI was more than 100 µM.

Take `CCOC(=O)[CH-]C(=O)C12CC3CC(CC(C3)C1)C2.CCOC(=O)[CH-]C(=O)C12CC3CC(CC(C3)C1)C2.CC[O-].CC[O-].[Ti+4]`: the GI50 is more than 100 µM and the TGI is more than 100 µM.

Regarding `CCCC1(CC(=O)O)OCCc2c1[nH]c1ccccc21` (stereo not drawn), the concentration for total growth inhibition (TGI) is more than 100 µM.

The test system of the next assay is HOP-62 NSCLC. Put plainly: DTP human tumour cell line panel, 48 h.
On to `O=C(Nc1ccc(C(F)(F)F)cc1[N+](=O)[O-])C(=O)C1NC(=S)NC1=O` (stereo not drawn), for which the TGI is more than 100 µM.

`COc1cc(NCC(C#N)C#N)ccc1N=Nc1ccc(Cl)cc1` registered a TGI of 36.4 µM.

Regarding `O=C1N/C(=C\[N+](=O)[O-])c2ccccc21`, the total growth inhibition concentration (TGI) is more than 100 µM.

Regarding `Cn1c(Cl)c(/C=C2/C(=O)Nc3ccccc32)c2ccccc21`, the GI50 is 0.293 µM and the TGI was found to be 6.68 µM.

For the compound `COc1ccc(C(C#N)NC23CC4CC(CC(C4)C2)C3)cc1` (stereo not drawn), the TGI is more than 100 µM.

Regarding `COc1ccc(NC(=O)CC/C(CC(=O)c2ccco2)=N/NC(=O)C(N)=O)cc1`, the TGI was more than 100 µM.

For the compound `N/N=C\c1c2ccccc2c(=O)n2c1oc1ccccc12`, the GI50 was 16.9 µM and the TGI amounted to 32.9 µM.

Consider `CCOC(=O)[CH-]C(=O)C12CC3CC(CC(C3)C1)C2.CCOC(=O)[CH-]C(=O)C12CC3CC(CC(C3)C1)C2.CC[O-].CC[O-].[Ti+4]`, for which the GI50 was more than 100 µM and the concentration for total growth inhibition (TGI) was more than 100 µM.

`CCCC1(CC(=O)O)OCCc2c1[nH]c1ccccc21` (stereo not drawn) had a TGI of more than 100 µM.

The next assay concerns SF-539 CNS. As to the kind of experiment: DTP human tumour cell line panel, 48 h.
As for `COc1ccc2c(c1)C(=O)CCc1cc(OC)c(OC)c(OC)c1-2`, the TGI is 87.1 µM.

Consider `O=C(Nc1ccc(C(F)(F)F)cc1[N+](=O)[O-])C(=O)C1NC(=S)NC1=O` (stereo not drawn), for which the total growth inhibition concentration (TGI) was more than 100 µM.

For `COc1cc(NCC(C#N)C#N)ccc1N=Nc1ccc(Cl)cc1`, the TGI amounted to 51.6 µM.

`O=C1N/C(=C\[N+](=O)[O-])c2ccccc21` displayed a TGI of more than 100 µM.

On to `Cn1c(Cl)c(/C=C2/C(=O)Nc3ccccc32)c2ccccc21`, for which the GI50 was 0.17 µM and the TGI was found to be 1.06 µM.

`COc1ccc(C(C#N)NC23CC4CC(CC(C4)C2)C3)cc1` (stereo not drawn) returned a total growth inhibition concentration (TGI) of more than 100 µM.
